Experimental data as given in patent publication US20170283440A1, “CARM1 INHIBITORS AND USES THEREOF” (Epizyme, Inc., priority 2014, published 2017).
Read-outs that look alike come from different tables or passages of the source.

Key:
Human CARM1 (PRMT4) = molecular target: T1, Human CARM1 (PRMT4) (Homo sapiens, UniProt Q86X55); experiment: CARM1 enzyme assay on peptide substrate (3H-SAM Flashplate); assay type: biochemical; conditions: CARM1 0.25 nM, 3H-SAM 30 nM, peptide 250 nM; read-out: Biochem IC50
T1 construct: Flag-CARM1-His was eluted with 200 ug/ml FLAG peptide in buffer A; made in house; host or cells: HEK 293F cells infected with recombinant baculovirus (pFastBacMam)
T1 sequence (Q86X55 other isoform, or with tags, fused parts or gaps): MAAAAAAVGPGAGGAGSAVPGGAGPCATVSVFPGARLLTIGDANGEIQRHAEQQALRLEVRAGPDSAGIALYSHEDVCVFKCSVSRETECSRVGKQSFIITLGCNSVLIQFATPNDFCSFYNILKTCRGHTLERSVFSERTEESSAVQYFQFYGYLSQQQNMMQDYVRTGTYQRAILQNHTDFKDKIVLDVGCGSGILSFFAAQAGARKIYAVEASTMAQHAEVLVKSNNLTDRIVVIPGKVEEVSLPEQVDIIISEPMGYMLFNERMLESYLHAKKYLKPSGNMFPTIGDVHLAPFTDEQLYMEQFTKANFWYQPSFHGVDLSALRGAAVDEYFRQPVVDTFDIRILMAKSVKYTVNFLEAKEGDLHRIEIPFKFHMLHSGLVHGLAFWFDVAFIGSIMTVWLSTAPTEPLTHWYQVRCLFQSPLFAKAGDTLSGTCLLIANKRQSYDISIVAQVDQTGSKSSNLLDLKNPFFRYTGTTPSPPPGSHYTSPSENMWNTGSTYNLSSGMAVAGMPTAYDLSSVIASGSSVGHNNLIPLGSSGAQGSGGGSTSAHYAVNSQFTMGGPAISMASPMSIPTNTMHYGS
In short: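 Flag-CARM1-His (isoform 1, Δ539-561; HEK293F-expressed), 0.25 nM, preincubated 30 min RT with compound, then 30 nM 3H-SAM and 250 nM biotinylated H3(16-30) R26me1 peptide in pH 7.6 Bicine buffer, 2% DMSO. Stopped with 300 uM cold SAM; streptavidin Flashplate capture, cpm. % inhibition vs DMSO/1 mM SAH, 3- or 4-parameter fit.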

[1] = system: asymmetric di-methyl PABP1 in RKO cells; experiment: RKO methylation assay (In Cell Western for asymmetric di-methyl PABP1); assay type: cell-based; conditions: 48 hours incubation, read-out: Cellular IC50
In short: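 RKO cells treated 48 h at 37 °C, then fixed, methanol-permeabilized and probed for asymmetric di-methyl PABP1 (16 h, 4 °C) with DRAQ5 counterstain; 800/700 nm intensity ratio read.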

| IC50 (Human CARM1 (PRMT4)) [nM] | IC50 ([1]; Homo sapiens) [µM] | IC50 [1] [µM] | Compound |
| --- | --- | --- | --- |
| < 100 | 10 to 20 |  | CNCC(O)COc1cc(OC)cc(-c2cc(N(C)C3CCOCC3)c3c(C)nn(C(C)C)c3n2)c1 (stereo not drawn) [Example 25-4] |
| 100 to 1000 | > 20 |  | CNCC(O)COc1cccc(-c2nc(NCc3ccn(C)n3)c3cnn(C4CC4)c3n2)c1 (stereo not drawn) [Example 25-5] |
| < 100 | > 20 |  | CNCC(O)COc1cc(OC)cc(-c2cc(N(C)CCOC)n3ncc(C(C)C)c3n2)c1 (stereo not drawn) [Example 25-6] |
| 100 to 1000 | > 20 |  | CC(C)n1ncc2c(N3CCOCC3)cc(-c3cc(OC[C@H](O)CN)cc(OC[C@H](O)CN)c3)nc21 [Example 25-9] |
| 100 to 1000 | > 20 |  | CNCC(O)COc1cc(Cl)cc(-c2cc(N3CCOC3=O)n3ncc(C(C)C)c3n2)c1 (stereo not drawn) [Example 26-6] |
| 100 to 1000 | > 20 |  | CNCC(O)COc1cc(C#N)cc(-c2cc(N3CCOCC3)n3ncc(C(C)C)c3n2)c1 (stereo not drawn) [Example 26-9] |
| < 100 | > 20 |  | CNCC(O)COc1cc(Cl)cc(-c2cc(N3CCOCC3)n3ncc(C(C)C)c3n2)c1 (stereo not drawn) [Example 27-6] |
| 100 to 1000 | > 20 |  | CNCC(O)COc1cccc(-c2cc(NS(=O)(=O)N(C)C)c3cnn(C(C)C)c3n2)c1 (stereo not drawn) [Example 27-9] |
| 100 to 1000 | > 20 |  | CNCC(O)COc1cc(OC(F)(F)F)cc(-c2cc(NC3CCOCC3)c3cnn(C(C)C)c3n2)c1 (stereo not drawn) [Example 28-4] |
| < 100 | > 20 |  | CNCC(O)COc1cc(Cl)cc(-c2cc(NC3CCOC3)n3ncc(C(C)C)c3n2)c1 (stereo not drawn) [Example 28-6] |
| 100 to 1000 | > 20 |  | CC(C)n1ncc2c(N3CCOCC3)cc(-c3cccc(NCC(O)CN)c3)nc21 (stereo not drawn) [Example 28-9] |
| < 100 | > 20 |  | CNCC(O)COc1cc(Cl)cc(-c2cc(N[C@@H]3CCOC3)n3ncc(C(C)C)c3n2)c1 (stereo partly drawn) [Example 29-6] |
| 100 to 1000 | > 20 |  | Cc1cc(C)c(CNC(=O)c2cc(-c3cccc(OCC(O)CN)c3)nc3nn(C(C)C)cc23)c(=O)[nH]1 (stereo not drawn) [Example 29-9] |
| < 100 | 5 to 10 |  | CNCC(O)COc1cccc(-c2nc(NC3CCOCC3)c3cnn(C(C)(C)C)c3n2)c1 (stereo not drawn) [Example 30-5] |
| < 100 | > 20 |  | CNCC(O)COc1cc(Cl)cc(-c2cc(N(C)CCOC)n3ncc(C(C)C)c3n2)c1 (stereo not drawn) [Example 30-6] |
| 100 to 1000 | > 20 |  | CNCC(O)COc1cccc(-c2nc(NCc3cccc[n+]3[O-])c3cnn(C4CC4)c3n2)c1 (stereo not drawn) [Example 31-5] |
| < 100 | > 20 |  | CNCC(O)COc1cc(OC)cc(-c2cc(Nc3ncccn3)n3ncc(C(C)C)c3n2)c1 (stereo not drawn) [Example 31-6] |
| 100 to 1000 |  | > 20 | CC(C)n1ncc2c(N3CCOCC3)cc(-c3cccc(CCC(O)CN)c3)nc21 (stereo not drawn) [Example 31-9] |
| 100 to 1000 | > 20 |  | CNCC(O)COc1cccc(-c2nc(NCc3ccc[n+]([O-])c3)c3cnn(C4CC4)c3n2)c1 (stereo not drawn) [Example 32-5] |
| < 100 | > 20 |  | CNCC(O)COc1cccc(-c2cc(N3CC4(CCOCC4)C3)n3ncc(C(C)C)c3n2)c1 (stereo not drawn) [Example 32-6] |
| < 100 | > 20 |  | CNCC(O)COc1cccc(-c2nc(NCc3ccccn3)c3cnn(C(C)(C)C)c3n2)c1 (stereo not drawn) [Example 33-5] |
| 100 to 1000 | > 20 |  | C=Cc1cc(OCC(O)CNC)cc(-c2cc(NC3CCOCC3)n3ncc(C(C)C)c3n2)c1 (stereo not drawn) [Example 33-6] |
| < 100 | > 20 |  | CNCC(O)COc1cccc(-c2nc(NCc3cc(C)nn3C)c3cnn(C4CC4)c3n2)c1 (stereo not drawn) [Example 34-5] |
| < 100 | > 20 |  | CNCC(O)COc1cc(OC)cc(-c2cc(NC3CCOCC3)n3ncc(C(C)C)c3n2)c1 (stereo not drawn) [Example 34-6] |

| IC50 (Human CARM1 (PRMT4)) [nM] | IC50 ([1]; Homo sapiens) [µM] | IC50 [1] [µM] | Compound |
| --- | --- | --- | --- |
| < 100 | > 20 |  | CNCC(O)COc1cc(OC)cc(-c2cc(N(C)[C@@H]3CCOC3)n3ncc(C(C)C)c3n2)c1 (stereo partly drawn) [Example 35-6] |
| < 100 | > 20 |  | CNCC(O)COc1cccc(-c2nc(N(C)C3CCOCC3)c3cnn(C(C)(C)C)c3n2)c1 (stereo not drawn) [Example 36-5] |
| < 100 | > 20 |  | CNCC(O)COc1cc(OC)cc(-c2cc(N(C)[C@H]3CCOC3)n3ncc(C(C)C)c3n2)c1 (stereo partly drawn) [Example 36-6] |
| < 100 | > 20 |  | NCC(O)COc1cccc(-c2nc(NCc3cccc4ccnn34)c3cnn(C4CC4)c3n2)c1 (stereo not drawn) [Example 37-5] |
| 100 to 1000 | > 20 |  | CNCC(O)COc1cc(OC)cc(-c2cc(N3CCC(O)CC3)n3ncc(C(C)C)c3n2)c1 (stereo not drawn) [Example 37-6] |
| 100 to 1000 | > 20 |  | Cc1cc(C)c(CNc2nc(-c3cccc(OCC(O)CN)c3)nc3c2cnn3C2CC2)c(=O)[nH]1 (stereo not drawn) [Example 38-5] |
| 100 to 1000 | > 20 |  | CNCC(O)COc1cc(Cl)cc(-c2cc(NC3C4COCC43)n3ncc(C(C)C)c3n2)c1 (stereo not drawn) [Example 38-6] |
| < 100 | 10 to 20 |  | NCC(O)COc1cccc(-c2nc(NCc3cn4ccsc4n3)c3cnn(C4CC4)c3n2)c1 (stereo not drawn) [Example 39-5] |
| < 100 | > 20 |  | CNCC(O)COc1cc(Cl)cc(-c2cc(NC3CCOCC3)n3ncc(C(C)C)c3n2)c1 (stereo not drawn) [Example 39-6] |
| < 100 | > 20 |  | CNCC(O)COc1cc(Cl)cc(-c2cc(N(C)[C@@H]3CCOC3)n3ncc(C(C)C)c3n2)c1 (stereo partly drawn) [Example 40-6] |
| 100 to 1000 | > 20 |  | Cc1cccn2cc(CNc3nc(-c4cccc(OCC(O)CN)c4)nc4c3cnn4C3CC3)nc12 (stereo not drawn) [Example 41-5] |
| < 100 | > 20 |  | CNCC(O)COc1cc(Cl)cc(-c2cc(N(C)[C@H]3CCOC3)n3ncc(C(C)C)c3n2)c1 (stereo partly drawn) [Example 41-6] |
| 100 to 1000 | > 20 |  | CNCC(O)COc1cccc(-c2nc(NCc3c(C)cc(C)[nH]c3=O)c3cnn(C4CC4)c3n2)c1 (stereo not drawn) [Example 42-5] |
| < 100 | > 20 |  | CNCC(O)COc1cccc(-c2nc(NCc3cn4ccsc4n3)c3cnn(C4CC4)c3n2)c1 (stereo not drawn) [Example 43-5] |
| 100 to 1000 | > 20 |  | CNCC(O)COc1cc(OC)cc(-c2cc(N3CC4CCC(C3)O4)n3ncc(C(C)C)c3n2)c1 (stereo not drawn) [Example 43-6] |
| 100 to 1000 | 10 to 20 |  | CNCC(O)COc1cccc(-c2nc(NCc3cn4cccc(C)c4n3)c3cnn(C4CC4)c3n2)c1 (stereo not drawn) [Example 44-5] |
| < 100 | > 20 |  | CNCC(O)COc1cc(Cl)cc(-c2cc(NC3CCOCC3)n3ncc(C(C)(C)C)c3n2)c1 (stereo not drawn) [Example 48-6] |
| 100 to 1000 | > 20 |  | CNCC(O)COc1cc(OC)cc(-c2cc(N3CC4(CCOCC4)C3)n3ncc(C(C)C)c3n2)c1 (stereo not drawn) [Example 49-6] |
| < 100 | > 20 |  | CNCC(O)COc1cc(Cl)cc(-c2cc(N3CC4(CCOCC4)C3)n3ncc(C(C)C)c3n2)c1 (stereo not drawn) [Example 50-6] |
| < 100 | > 20 |  | CNCC(O)COc1cc(OC)cc(-c2cc(N3CC(CO)(CCl)C3)n3ncc(C(C)C)c3n2)c1 (stereo not drawn) [Example 52-6] |
| < 100 | > 20 |  | CNCC(O)COc1cc(Cl)cc(-c2cc(N3CC(CO)(CCl)C3)n3ncc(C(C)C)c3n2)c1 (stereo not drawn) [Example 53-6] |
| 100 to 1000 | 10 to 20 |  | CNCC(O)COc1cccc(-c2cc(NCCCCCNC(=O)c3ccn(C)n3)c3cnn(C(C)C)c3n2)c1 (stereo not drawn) [Example 64-1] |
| < 100 | > 20 |  | CNCC(O)COc1cccc(-c2cc(NCCCCCCNC(=O)c3ccn(C)n3)c3cnn(C(C)C)c3n2)c1 (stereo not drawn) [Example 66-1] |

| Compound | IC50 (Human CARM1 (PRMT4)) [nM] | IC50 ([1]; Homo sapiens) [µM] | IC50 [1] [µM] |
| --- | --- | --- | --- |
| CNCC(O)COc1cc(Cl)cc(-c2cc(N3C4CCC3COC4)n3ncc(C(C)C)c3n2)c1 (stereo not drawn) [Example 46-6] | < 100 | > 20 |  |
